Test results from paper PMC9741109, “Synthesis, In Silico and In Vivo Toxicity Assessment of Functionalized Pyridophenanthridinones via Sequential MW-Assisted Intramolecular Friedel-Crafts Alkylation and Direct C–H Arylation” (Molecules, 2022).
Values joined by “and” are separate entries in the source; they are usually repeats but may differ in a detail not shown here. Equal values may be shown once.

Assays:
[1] = in vivo; conditions: wild-type, zebrafish (Danio rerio), in vivo
Source text: (§1) The Zebrafish (Danio rerio) has been established as a modern experimental vertebrate model for assessing the toxicity of diverse synthetic and natural small molecules (SMs). […] Thus, these previously reported methodologies were adapted in our laboratory with slight modifications for the toxicological assessment of the selected pyridophenanthridin-6-one 4f and its corresponding precursors 6f–8f (Table 2).
(§2) Wild-type adult zebrafish of both sexes were separated in two tanks (30 L each), according to their gender, at 26 ± 2 °C under natural light-dark photoperiods. Fishes were fed twice daily, and the water quality was recorded weekly, in order to acclimate the fishes for at least two weeks before experiments begin. For the reproduction of the adult fishes, small breeding tanks were set up in the evening previous to the experiment, each containing three males and one female specimen. The tanks were isolated until the next morning when the lights switched on and the natural mating occurred, without any perturbation.
(§3) The adult fishes were returned to their corresponding tank and the embryos were collected, pooled, and washed with E3 medium and transferred into a 92 mm glass Petri dish. Further, the dead, delayed, malformed, and unfertilized embryos were identified under a dissecting microscope and removed by select aspiration with a pipette. This last procedure was repeated at 12 and 20 hpf in order to remove the unfit embryos. Throughout this period of time, the embryos were kept at 28 ± 2 °C in an incubator under natural light–dark photoperiods. The selected embryos of 24 hpf from the Petri dish were gently distributed into 96-well plates, placing a single embryo and 200 μL of E3 medium per well.
(§4) For this experiment, in total 72 embryos were required per sample in order to run three independent experiments in three different plates, and each compound was evaluated three times in the same plate, allowing the evaluation of four samples per plate. […] Each embryo was examined under a dissecting microscope and the statistical analysis was made using Regression Probit analysis with SPSS for windows version 19.0. Data are expressed as the standard error of the mean (SEM) of three different experiments in triplicate.

[2] = system: zebrafish embryos; test: in vivo; conditions: toxicity scale class from zebrafish LC50 in mg/L
Source text: as §1, §2, §3, §4

[3] = LC50, zebrafish embryos, Figure 5 toxicity scale
[4] = Zebrafish LC50, zebrafish embryos, 96 hpf, 72 h exposure, mean ± SEM

Row | Compound | LC50 [1, 3] | LC50 [1, 4] | Aquatic Animal Acute Toxicity [2] | LC50 at 72 h [1, 3] | LC50 at 72 h ([1]; Zebrafish LC50, zebrafish embryos, 96 hpf, 72 h exposure, mean ± SEM, footnote c) | LC50 at 72 h [1, 4]
1 | CCc1cc2c3c(c1)C(c1ccccc1)CC(=O)N3Cc1ccccc1-2 (stereo not shown) [4f] | 67.8 µM | 67.8 µM and 60.2 µg/mL | ST (slightly toxic 10–100 (ST)) |  |  | 
2 | CCc1ccc2c(c1)C(c1ccccc1)CC(=O)N2Cc1ccccc1Br (stereo not shown) [6f] |  | 151 µM and 86.5 µg/mL | ST (slightly toxic 10–100 (ST)) |  |  | 
3 | CCc1ccc(N(Cc2ccccc2Br)C(=O)/C=C/c2ccccc2)cc1 [7f] | 137 µM | 137 µM and 51.2 µg/mL | ST (slightly toxic 10–100 (ST)) |  |  | 
4 | CCc1ccc(NC(=O)/C=C/c2ccccc2)cc1 [8f] |  | 221 µM and 43.9 µg/mL | ST (slightly toxic 10–100 (ST)) |  |  | 
5 | COc1ccc(O)cc1C(C)(C)C [BHA 18, butylated hydroxyanisole] | 90.2 µM | 90.2 ± 1.15 µM | ST (slightly toxic 10–100 (ST)) |  |  | 
6 | CC[C@@]1(O)C(=O)OCc2c1cc1n(c2=O)Cc2cc3ccccc3nc2-1 [Camptothecin 13, camptothecin] |  |  | T (super toxic 0–0.1 (T)) | 0.0038 µM | 0.00384 ± 0.00021 µM | 
7 | C=CCc1ccc(O)c(OC)c1 [Eugenol 19, eugenol] | 114 µM | 114 µM and 18.7 µg/mL | ST (slightly toxic 10–100 (ST)) |  |  | 
8 | CC(C)Cn1cnc2c(N)nc3ccccc3c21 [Imiquimod 14, imiquimod] |  |  | ST (slightly toxic 10–100 (ST)) | 351 µM |  | 351 µM and 84.3 µg/mL
9 | CCCCCCCCCCC[C@@H](C[C@@H]1OC(=O)[C@H]1CCCCCC)OC(=O)[C@H](CC(C)C)NC=O [Orlistat 15, orlistat] | 86 µM | 87 µM and 43.1 µg/mL | ST (slightly toxic 10–100 (ST)) |  |  | 
